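In this assay, cells in 96-well plates receive the compound at five concentrations for 48 hours. Endpoints are linearly interpolated between the surrounding concentrations. GI50 marks 50% less growth.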 Calls of active or inactive are those of the source. No stated cut-off is given here; in the data, active = GI50 up to about 1.1 µM and inactive = higher.
Key:
Assay in all cases: NCI anticancer screen, dose series, 48 h
A498 = test system: A498
CCRF-CEM = test system: CCRF-CEM
HCT-15 = test system: HCT-15
HOP-62 = test system: HOP-62
HT-29 = test system: HT-29
IGROV-1 = test system: IGROV-1
LOX IMVI = test system: LOX IMVI
NCI-H23 = test system: NCI-H23
OVCAR-5 = test system: OVCAR-5
OVCAR-8 = test system: OVCAR-8
RPMI-8226 = test system: RPMI-8226
RXF 393 = test system: RXF 393
SK-MEL-5 = test system: SK-MEL-5
SN12C = test system: SN12C
SNB-75 = test system: SNB-75
SW-620 = test system: SW-620
UO-31 = test system: UO-31
SR = test system: SR

Structure (SMILES) | GI50 (A498) | GI50 (CCRF-CEM) | GI50 (HCT-15) | GI50 (HOP-62) | GI50 (HT-29) | GI50 (IGROV-1) | GI50 (LOX IMVI) | GI50 (NCI-H23) | GI50 (OVCAR-5) | GI50 (OVCAR-8) | GI50 (RPMI-8226) | GI50 (RXF 393) | GI50 (SK-MEL-5) | GI50 (SN12C) | GI50 (SNB-75) | GI50 (SW-620) | GI50 (UO-31) | GI50 (SR)
O=C(Nc1ccccc1-c1nc2ccccc2[nH]c1=O)c1ccccc1 | 20.4 µM (inactive) | > 100 µM (inactive) | 35.2 µM | 19.5 µM (inactive) | 37.3 µM (inactive) | 26.4 µM (inactive) | 24.3 µM (inactive) | 33.7 µM (inactive) | 63.4 µM (inactive) | 22.9 µM (inactive) | 21.8 µM (inactive) | 21.2 µM (inactive) | 32.6 µM (inactive) | 27.3 µM (inactive) | 13.8 µM (inactive) | 27.9 µM (inactive) | 19.6 µM (inactive) | 
C=Cc1ccc(C)[n+](C[Si](C)(C)O[Si](C)(C)C)c1 |  | > 100 µM (inactive) | > 100 µM | > 100 µM (inactive) | > 100 µM (inactive) | > 100 µM (inactive) | > 100 µM (inactive) | > 100 µM (inactive) | > 100 µM (inactive) | > 100 µM (inactive) | > 100 µM (inactive) |  | > 100 µM (inactive) | > 100 µM (inactive) | > 100 µM (inactive) | > 100 µM (inactive) | > 100 µM (inactive) | > 100 µM (inactive)
COc1cc(C(CC(OC)OC)=C(C#N)C#N)cc(OC)c1OC | 8.13 µM (inactive) | 5.36 µM (inactive) | 16.9 µM |  | 5.6 µM (inactive) | 39.4 µM (inactive) | 10.5 µM (inactive) | 28.1 µM (inactive) | > 100 µM (inactive) | 20 µM (inactive) |  | 25.2 µM (inactive) | 7.4 µM (inactive) | 29.2 µM (inactive) | 22.8 µM (inactive) | 29.7 µM (inactive) | 28.1 µM (inactive) | 14.5 µM (inactive)
CCn1c2ccccc2c2ccc3c(c21)C(=O)C=CC3=O |  | 0.375 µM (active) | 10.4 µM | 7.52 µM (inactive) | 21 µM (inactive) | 1.39 µM (inactive) |  | 22.5 µM (inactive) | 21.5 µM (inactive) | 13.7 µM (inactive) | 10.3 µM (inactive) |  | < 0.01 µM (active) | 18.2 µM (inactive) | 29.6 µM (inactive) |  | 10 µM (inactive) | 
COC(=O)c1nc(N)nc(O)c1CCCCCc1c(O)nc(N)nc1C(=O)OC | > 50 µM (inactive) | > 50 µM (inactive) | > 50 µM | > 50 µM (inactive) | > 50 µM (inactive) | > 50 µM (inactive) | > 50 µM (inactive) | > 50 µM (inactive) | > 50 µM (inactive) | > 50 µM (inactive) | > 50 µM (inactive) | > 50 µM (inactive) | > 50 µM (inactive) | > 50 µM (inactive) | > 50 µM (inactive) | > 50 µM (inactive) | > 50 µM (inactive) | 
c1ccc2c(NCCCCCCNc3cccc4ccccc34)cccc2c1 | > 100 µM (inactive) | 38.8 µM (inactive) | > 100 µM | > 100 µM (inactive) | > 100 µM (inactive) | > 100 µM (inactive) |  | 75.3 µM (inactive) | > 100 µM (inactive) | > 100 µM (inactive) | 87.3 µM (inactive) |  | 60.3 µM (inactive) | > 100 µM (inactive) | 2.77 µM (inactive) | 74.5 µM (inactive) | 98.2 µM (inactive) | 
NC1=NN(c2ccccc2)C(=O)C1C(=O)C(=O)Nc1ccc(Cl)c(Cl)c1 (stereo not drawn) | > 100 µM (inactive) | 96.4 µM (inactive) | 68.7 µM | > 100 µM (inactive) | > 100 µM (inactive) | > 100 µM (inactive) |  | > 100 µM (inactive) | > 100 µM (inactive) | > 100 µM (inactive) | > 100 µM (inactive) | > 100 µM (inactive) | > 100 µM (inactive) | > 100 µM (inactive) | 37.2 µM (inactive) | > 100 µM (inactive) | > 100 µM (inactive) | > 100 µM (inactive)
Cn1c2c(c3ccccc31)CCN(CCN1CCN(c3cccc(Cl)c3)CC1)C2=O | > 100 µM (inactive) | > 100 µM (inactive) | 25.8 µM | > 100 µM (inactive) | 18.2 µM (inactive) | > 100 µM (inactive) | 57.9 µM (inactive) | 35.8 µM (inactive) |  | > 100 µM (inactive) | 21.6 µM (inactive) | 67.1 µM (inactive) | 23.6 µM (inactive) | 32.1 µM (inactive) |  | 63.4 µM (inactive) | 30.3 µM (inactive) | 
CSc1ccc2c(cc1=O)[C@@H](NC(=O)c1ccc(Cl)cc1)CCc1cc(O)c(O)c(O)c1-2 | > 100 µM (inactive) | 28.1 µM (inactive) | 21.6 µM | 57.4 µM (inactive) | > 100 µM (inactive) | 22.1 µM (inactive) | 18.6 µM (inactive) | 32.1 µM (inactive) | > 100 µM (inactive) | 50 µM (inactive) | 23.3 µM (inactive) | > 100 µM (inactive) | 50.4 µM (inactive) | 24.5 µM (inactive) | 27.7 µM (inactive) | 19.5 µM (inactive) | > 100 µM (inactive) | 

From ChEMBL document CHEMBL1201862, “PubChem BioAssay data set” (2004)
